{
  "source": "the NIST ThermoML archive (doi:10.1007/s10765-005-8591-6)",
  "key": {"[1]": {"experiment": "xn = mol fraction of the nth substance listed", "conditions": "Fluid (supercritical or subcritical phases), Constant-volume piezometry, x1 = 1"}, "[2]": {"conditions": "Fluid (supercritical or subcritical phases), Constant-volume piezometry"}},
  "note": "Numbers after ± are expanded uncertainties.",
  "data": [
    {"molecule": "FCF", "note": "[difluoromethane] + FC(F)C(F)(F)F", "values": [
      {"measurement": "mass density", "setting": "[1]; 313.16 K, 3353.7 kPa", "result": "900.17 ± 0.41", "unit": "kg/m3"},
      {"measurement": "mass density", "setting": "[1]; 316.15 K, 4967.1 kPa", "result": "899.97 ± 0.41", "unit": "kg/m3"},
      {"measurement": "mass density", "setting": "[1]; 319.15 K, 6571.4 kPa", "result": "899.77 ± 0.41", "unit": "kg/m3"},
      {"measurement": "mass density", "setting": "[1]; 322.15 K, 8162.4 kPa", "result": "899.57 ± 0.42", "unit": "kg/m3"},
      {"measurement": "mass density", "setting": "[1]; 328.16 K, 11400 kPa", "result": "899.19 ± 0.43", "unit": "kg/m3"},
      {"measurement": "mass density", "setting": "[1]; 334.15 K, 14753 kPa", "result": "898.82 ± 0.44", "unit": "kg/m3"},
      {"measurement": "mass density", "setting": "[1]; 337.15 K, 16580 kPa", "result": "898.63 ± 0.44", "unit": "kg/m3"}
    ]},
    {"molecule": "FC(F)C(F)(F)F", "note": "[pentafluoroethane]", "values": [
      {"measurement": "mass density", "setting": "[2]; 258.16 K, 4595.6 kPa", "result": "1403.78 ± 0.63", "unit": "kg/m3"},
      {"measurement": "mass density", "setting": "[2]; 261.15 K, 6579.8 kPa", "result": "1403.47 ± 0.63", "unit": "kg/m3"},
      {"measurement": "mass density", "setting": "[2]; 262.14 K, 7284.6 kPa", "result": "1403.36 ± 0.63", "unit": "kg/m3"},
      {"measurement": "mass density", "setting": "[2]; 267.16 K, 10809 kPa", "result": "1402.84 ± 0.64", "unit": "kg/m3"},
      {"measurement": "mass density", "setting": "[2]; 270.19 K, 13003 kPa", "result": "1402.53 ± 0.64", "unit": "kg/m3"},
      {"measurement": "mass density", "setting": "[2]; 273.15 K, 15076 kPa", "result": "1402.23 ± 0.65", "unit": "kg/m3"},
      {"measurement": "mass density", "setting": "[2]; 275.15 K, 16572 kPa", "result": "1402.04 ± 0.65", "unit": "kg/m3"}
    ]},
    {"molecule": "FCF", "note": "[difluoromethane]", "values": [
      {"measurement": "mass density", "setting": "[2]; 313.16 K, 3353.7 kPa", "result": "900.17 ± 0.41", "unit": "kg/m3"},
      {"measurement": "mass density", "setting": "[2]; 316.15 K, 4967.1 kPa", "result": "899.97 ± 0.41", "unit": "kg/m3"},
      {"measurement": "mass density", "setting": "[2]; 319.15 K, 6571.4 kPa", "result": "899.77 ± 0.41", "unit": "kg/m3"},
      {"measurement": "mass density", "setting": "[2]; 322.15 K, 8162.4 kPa", "result": "899.57 ± 0.42", "unit": "kg/m3"},
      {"measurement": "mass density", "setting": "[2]; 328.16 K, 11400 kPa", "result": "899.19 ± 0.43", "unit": "kg/m3"},
      {"measurement": "mass density", "setting": "[2]; 334.15 K, 14753 kPa", "result": "898.82 ± 0.44", "unit": "kg/m3"},
      {"measurement": "mass density", "setting": "[2]; 337.15 K, 16580 kPa", "result": "898.63 ± 0.44", "unit": "kg/m3"}
    ]}
  ]
}
